# Laboratory results as given in PubChem BioAssay AID1259407 (Chemical Carcinogenesis Research Information System (CCRIS), 2018).
# Calls of active or inactive are those of the source. How the calls were made is not given here.
# System: CCRIS mutagenicity, Ames/micronucleus/aberration tests
# Assay: CCRIS mutagenicity studies
# [1] = Test System: AMES SALMONELLA TYPHIMURIUM, Strain/Indicator: TA98, Metabolic Activation: NONE, Method: STANDARD PLATE
# [2] = Test System: AMES SALMONELLA TYPHIMURIUM, Strain/Indicator: TA100, Metabolic Activation: NONE, Method: STANDARD PLATE
# [3] = Test System: AMES SALMONELLA TYPHIMURIUM, Strain/Indicator: TA98, Metabolic Activation: NONE, Method: PREINCUBATION
# [4] = Test System: AMES SALMONELLA TYPHIMURIUM, Strain/Indicator: TA100, Metabolic Activation: NONE, Method: PREINCUBATION
# [5] = Test System: AMES SALMONELLA TYPHIMURIUM, Strain/Indicator: TA98, Metabolic Activation: RAT, LIVER, S-9, PCB, Method: PREINCUBATION
# [6] = Test System: AMES SALMONELLA TYPHIMURIUM, Strain/Indicator: TA100, Metabolic Activation: RAT, LIVER, S-9, PCB, Method: PREINCUBATION
smiles,measurement,setting,value
COC(COC(N)=O)C1=C(N2CC2)C(=O)C(C)=C(N2CC2)C1=O (stereo not given),mutagenic call,[1],active; positive
same,mutagenic call,[2],active; positive
same,mutagenic call,"Test System: AMES SALMONELLA TYPHIMURIUM, Strain/Indicator: TA1537, Metabolic Activation: NONE, Method: STANDARD PLATE",active; positive
same,mutagenic call,"Test System: CHINESE HAMSTER V-79, Strain/Indicator: V-79/6-THIOGUANINE, Metabolic Activation: NONE, Method: FLASK ASSAY",active; positive
same,mutagenic call,"Test System: E. COLI, Strain/Indicator: WP2 (HCR), Metabolic Activation: NONE, Method: STANDARD PLATE",active; positive
CCCC(=O)OCc1ccccc1[N+](=O)[O-],mutagenic call,[3],inactive; negative
same,mutagenic call,[4],inactive; negative
same,mutagenic call,"Test System: AMES SALMONELLA TYPHIMURIUM, Strain/Indicator: TA100, Metabolic Activation: RAT, LIVER, S-9, AROCLOR 1254, Method: PREINCUBATION",inactive; negative
O=c1cc(-c2ccc(O)cc2)oc2cc(O)c([C@@H]3O[C@H](CO)[C@@H](O)[C@H](O)[C@H]3O)c(O)c12,mutagenic call,"Test System: Ames Salmonella typhimurium, Strain/Indicator: TA98, Metabolic Activation: None, Method: Standard plate",inactive; negative
same,mutagenic call,"Test System: Ames Salmonella typhimurium, Strain/Indicator: TA98, Metabolic Activation: Rat, Liver, S-9, Aroclor 1254, Method: Standard plate",inactive; negative
Cc1c(N)cc(N)cc1N,mutagenic call,"Test System: CHINESE HAMSTER CELLS, Strain/Indicator: CHO CELLS(HPRT)/6-THIOGUANINE, Metabolic Activation: NONE, Method: SUSPENSION/PLATE",active; positive
same,mutagenic call,"Test System: CHINESE HAMSTER CELLS, Strain/Indicator: CHO CELLS(HPRT)/6-THIOGUANINE, Metabolic Activation: RAT LIVER S-9, AROCLOR 1254, Method: SUSPENSION/PLATE",inactive; negative
Nc1ccc(-c2ccc(N)c(F)c2)cc1F,mutagenic call,"Test System: AMES SALMONELLA TYPHIMURIUM, Strain/Indicator: TA98(1,8-DNP6), Metabolic Activation: HAMSTER, LIVER, S-9, Method: PREINCUBATION",active; positive
same,mutagenic call,"Test System: AMES SALMONELLA TYPHIMURIUM, Strain/Indicator: TA98(1,8-DNP6), Metabolic Activation: NONE, Method: PREINCUBATION",active; positive
same,mutagenic call,"Test System: AMES SALMONELLA TYPHIMURIUM, Strain/Indicator: TA98(1,8-DNP6), Metabolic Activation: NONE, Method: STANDARD PLATE",active; positive
same,mutagenic call,"Test System: AMES SALMONELLA TYPHIMURIUM, Strain/Indicator: TA98(1,8-DNP6), Metabolic Activation: S-9, Method: STANDARD PLATE",active; positive
same,mutagenic call,"Test System: AMES SALMONELLA TYPHIMURIUM, Strain/Indicator: TA98, Metabolic Activation: HAMSTER, LIVER, S-9, Method: PREINCUBATION",active; positive
same,mutagenic call,[3],active; positive
same,mutagenic call,[1],active; positive
same,mutagenic call,"Test System: AMES SALMONELLA TYPHIMURIUM, Strain/Indicator: TA98, Metabolic Activation: S-9, Method: STANDARD PLATE",active; positive
same,mutagenic call,[2],inactive; negative
same,mutagenic call,"Test System: AMES SALMONELLA TYPHIMURIUM, Strain/Indicator: TA100, Metabolic Activation: S-9, Method: STANDARD PLATE",active; positive
c1cc2cnncc2cn1,mutagenic call,[3],inactive; negative
same,mutagenic call,[5],inactive; negative
same,mutagenic call,[4],inactive; negative
same,mutagenic call,[6],inactive; negative
Cc1ccc(NN=NCc2ccc([N+](=O)[O-])cc2)cc1,mutagenic call,[3],active; positive
same,mutagenic call,[5],active; positive
same,mutagenic call,[4],active; positive
same,mutagenic call,[6],active; positive
Cc1c2ccccc2cc2ccc3c(c12)C=CC(=O)C3=O,mutagenic call,"Test System: AMES SALMONELLA TYPHIMURIUM, Strain/Indicator: TA97A, Metabolic Activation: NONE, Method: PREINCUBATION",inactive; negative
same,mutagenic call,[3],active; positive
same,mutagenic call,[4],inactive; negative
same,mutagenic call,"Test System: AMES SALMONELLA TYPHIMURIUM, Strain/Indicator: TA102, Metabolic Activation: NONE, Method: PREINCUBATION",inactive; negative
same,mutagenic call,"Test System: AMES SALMONELLA TYPHIMURIUM, Strain/Indicator: TA104, Metabolic Activation: NONE, Method: PREINCUBATION",inactive; negative
